ChEMBL document CHEMBL5370531, “Design, synthesis and pharmacological evaluation of 2,3-dihydrobenzofuran IRAK4 inhibitors for the treatment of diffuse large B-cell lymphoma” (Eur J Med Chem, 2023)
Active and inactive are the calls of the source. The rule behind the calls is not given here.

How the values were obtained:
[1] = target: Interleukin-1 receptor-associated kinase 4 (Homo sapiens) (UniProt Q9NWZ3); assay: Inhibition of IRAK4 in human OCILY10 cells assessed as downregulation of IRAK4 phosphorylation level by immunoblotting analysis; format: cell-based
OCI-Ly10 [2] = assay: Induction of apoptosis in human OCILY10 cells assessed as upregulation of caspase-3 cleavage at 0.1 to 1 uM incubated for 48 hrs by immunoblotting analysis; format: functional, cell-based; settings: dose 0.1-1 µM
OCI-Ly10 [3] = assay: Induction of apoptosis in human OCILY10 cells assessed as late apoptotic cells at 0.1 uM incubated for 24 hrs by Annexin V-FITC/PI staining based flow cytometry (reference value: 3.71 %); format: functional
[4] = target: Proto-oncogene tyrosine-protein kinase Src (Homo sapiens) (UniProt P12931); assay: Inhibition of SRC (unknown origin) at 100 nM incubated for 1 hr in presence of ATP by ELISA analysis
Sequence of Proto-oncogene tyrosine-protein kinase Src (Homo sapiens) (P12931 2-536 limits assumed): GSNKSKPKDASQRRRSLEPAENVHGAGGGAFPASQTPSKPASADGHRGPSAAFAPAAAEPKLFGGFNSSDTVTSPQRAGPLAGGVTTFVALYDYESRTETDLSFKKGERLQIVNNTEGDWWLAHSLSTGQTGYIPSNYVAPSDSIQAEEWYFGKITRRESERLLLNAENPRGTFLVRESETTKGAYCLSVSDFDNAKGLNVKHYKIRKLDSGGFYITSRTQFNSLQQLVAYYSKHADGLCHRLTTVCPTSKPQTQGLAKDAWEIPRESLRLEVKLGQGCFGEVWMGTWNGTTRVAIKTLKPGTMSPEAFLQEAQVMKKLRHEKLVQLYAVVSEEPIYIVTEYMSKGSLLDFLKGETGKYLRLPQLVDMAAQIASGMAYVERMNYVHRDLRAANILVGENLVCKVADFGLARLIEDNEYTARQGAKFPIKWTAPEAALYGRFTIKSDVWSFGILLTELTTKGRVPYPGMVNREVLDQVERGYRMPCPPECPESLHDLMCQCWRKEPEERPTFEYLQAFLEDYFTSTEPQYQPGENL

OCI-Ly10 [5] = assay: Synergistic antiproliferative activity against human OCILY10 cells harboring MYD88 L265P assessed as inhibition of cell growth at 400 nM incubated for 72 hrs in presence of BTK inhibitor, ibrutinib at 1.6 nM by CCK-8 assay (reference value: 34.46 %); format: functional
OCI-Ly10 [6] = assay: Synergistic antiproliferative activity against human OCILY10 cells harboring MYD88 L265P assessed as inhibition of cell growth at 100 nM incubated for 72 hrs in presence of BTK inhibitor, ibrutinib at 12.5 nM by CCK-8 assay (reference value: 21.36 %); format: functional
OCI-Ly10 [7] = assay: Induction of apoptosis in human OCILY10 cells assessed as late apoptotic cells at 0.5 uM incubated for 24 hrs by Annexin V-FITC/PI staining based flow cytometry (reference value: 3.71 %); format: functional
OCI-Ly10 [8] = assay: Synergistic antiproliferative activity against human OCILY10 cells harboring MYD88 L265P assessed as inhibition of cell growth at 1600 nM incubated for 72 hrs in presence of BTK inhibitor, ibrutinib at 3.1 nM by CCK-8 assay (reference value: 64.69 %); format: functional
[9] = target: Ephrin type-A receptor 2 (Homo sapiens) (UniProt P29317); assay: Inhibition of EPHA2 (unknown origin) at 100 nM incubated for 1 hr in presence of ATP by ELISA analysis
[10] = target: T1, Interleukin-1 receptor-associated kinase 4 (Homo sapiens, UniProt Q9NWZ3); assay: Inhibition of IRAK4 (unknown origin) by Z-LYTE enzymatic kinase assay
T1 sequence (Q9NWZ3 whole entry): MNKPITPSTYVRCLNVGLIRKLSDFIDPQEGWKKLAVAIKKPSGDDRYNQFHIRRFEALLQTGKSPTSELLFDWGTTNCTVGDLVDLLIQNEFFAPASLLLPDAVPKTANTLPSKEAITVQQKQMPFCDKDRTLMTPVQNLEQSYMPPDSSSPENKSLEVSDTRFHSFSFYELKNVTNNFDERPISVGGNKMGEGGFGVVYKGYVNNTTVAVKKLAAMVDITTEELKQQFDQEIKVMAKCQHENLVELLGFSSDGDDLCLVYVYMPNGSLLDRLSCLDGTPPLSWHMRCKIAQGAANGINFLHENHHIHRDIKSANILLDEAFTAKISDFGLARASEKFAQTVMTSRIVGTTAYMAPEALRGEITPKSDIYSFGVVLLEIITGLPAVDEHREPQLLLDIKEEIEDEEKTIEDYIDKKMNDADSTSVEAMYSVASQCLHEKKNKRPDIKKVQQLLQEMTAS

[11] = target: Platelet-derived growth factor receptor beta (Homo sapiens) (UniProt P09619); assay: Inhibition of PDGFR-beta (unknown origin) at 100 nM incubated for 1 hr in presence of ATP by ELISA analysis
Sequence of Platelet-derived growth factor receptor beta (Homo sapiens) (P09619 whole entry): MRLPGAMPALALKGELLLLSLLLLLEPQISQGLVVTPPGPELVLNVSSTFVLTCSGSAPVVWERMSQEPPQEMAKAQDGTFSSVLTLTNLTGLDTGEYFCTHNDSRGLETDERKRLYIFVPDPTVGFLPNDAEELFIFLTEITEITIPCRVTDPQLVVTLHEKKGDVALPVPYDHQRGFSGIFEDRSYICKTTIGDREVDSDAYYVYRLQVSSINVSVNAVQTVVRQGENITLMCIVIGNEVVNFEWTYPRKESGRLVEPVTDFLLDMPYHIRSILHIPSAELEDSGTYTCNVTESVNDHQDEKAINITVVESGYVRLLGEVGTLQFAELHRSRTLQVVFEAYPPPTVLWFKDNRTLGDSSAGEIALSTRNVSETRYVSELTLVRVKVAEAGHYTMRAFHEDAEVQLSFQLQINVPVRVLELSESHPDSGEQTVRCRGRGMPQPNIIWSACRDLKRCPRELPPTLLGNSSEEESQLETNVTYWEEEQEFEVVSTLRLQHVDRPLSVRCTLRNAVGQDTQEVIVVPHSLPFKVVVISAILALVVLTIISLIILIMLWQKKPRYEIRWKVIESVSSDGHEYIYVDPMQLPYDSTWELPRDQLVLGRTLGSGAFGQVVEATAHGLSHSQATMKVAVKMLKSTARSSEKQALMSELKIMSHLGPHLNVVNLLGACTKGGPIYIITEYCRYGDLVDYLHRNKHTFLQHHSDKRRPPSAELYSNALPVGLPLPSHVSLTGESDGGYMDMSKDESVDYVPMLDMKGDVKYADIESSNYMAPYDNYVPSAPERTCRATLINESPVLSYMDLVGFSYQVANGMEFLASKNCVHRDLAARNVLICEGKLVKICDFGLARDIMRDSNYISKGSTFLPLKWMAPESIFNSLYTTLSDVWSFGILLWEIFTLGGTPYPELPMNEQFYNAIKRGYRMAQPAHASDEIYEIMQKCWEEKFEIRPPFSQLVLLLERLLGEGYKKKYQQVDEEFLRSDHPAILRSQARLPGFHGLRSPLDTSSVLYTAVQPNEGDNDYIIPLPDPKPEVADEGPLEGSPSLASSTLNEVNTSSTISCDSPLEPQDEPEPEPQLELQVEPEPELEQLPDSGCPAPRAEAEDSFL

[12] = target: Fibroblast growth factor receptor 2 (Homo sapiens) (UniProt P21802); assay: Inhibition of FGFR2 (unknown origin) at 100 nM incubated for 1 hr in presence of ATP by ELISA analysis
Sequence of Fibroblast growth factor receptor 2 (Homo sapiens) (P21802 22-821 limits assumed): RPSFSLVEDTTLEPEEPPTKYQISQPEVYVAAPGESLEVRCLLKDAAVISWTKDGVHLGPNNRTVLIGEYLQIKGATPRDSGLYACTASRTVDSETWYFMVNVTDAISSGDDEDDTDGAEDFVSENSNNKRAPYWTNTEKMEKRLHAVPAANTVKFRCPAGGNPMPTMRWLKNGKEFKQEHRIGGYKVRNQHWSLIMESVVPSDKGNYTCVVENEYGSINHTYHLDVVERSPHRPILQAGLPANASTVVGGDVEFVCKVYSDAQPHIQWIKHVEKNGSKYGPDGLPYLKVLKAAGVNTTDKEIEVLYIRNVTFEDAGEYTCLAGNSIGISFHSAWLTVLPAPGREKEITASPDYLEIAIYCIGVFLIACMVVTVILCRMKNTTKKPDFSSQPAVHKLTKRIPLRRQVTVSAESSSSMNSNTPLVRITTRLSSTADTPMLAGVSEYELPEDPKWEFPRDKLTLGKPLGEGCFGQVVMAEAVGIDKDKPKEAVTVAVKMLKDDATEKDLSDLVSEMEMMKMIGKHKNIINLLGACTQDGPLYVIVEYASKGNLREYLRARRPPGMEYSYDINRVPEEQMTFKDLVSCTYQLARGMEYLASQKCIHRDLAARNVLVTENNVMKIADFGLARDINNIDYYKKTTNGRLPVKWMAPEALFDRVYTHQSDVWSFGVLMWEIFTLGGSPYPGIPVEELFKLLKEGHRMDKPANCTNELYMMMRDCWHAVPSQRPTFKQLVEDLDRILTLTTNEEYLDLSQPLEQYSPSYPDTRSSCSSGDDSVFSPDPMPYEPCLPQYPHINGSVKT

OCI-Ly10 [13] = assay: Induction of apoptosis in human OCILY10 cells assessed as early apoptotic cells at 0.1 uM incubated for 24 hrs by Annexin V-FITC/PI staining based flow cytometry (reference value: 10 %); format: functional
OCI-Ly10 [14] = assay: Induction of apoptosis in human OCILY10 cells assessed as early apoptotic cells at 0.2 uM incubated for 48 hrs by Annexin V-FITC/PI staining based flow cytometry (reference value: 5.4 %); format: functional
OCI-Ly10 [15] = assay: Synergistic antiproliferative activity against human OCILY10 cells harboring MYD88 L265P assessed as inhibition of cell growth at 1600 nM incubated for 72 hrs in presence of BTK inhibitor, ibrutinib at 6.2 nM by CCK-8 assay (reference value: 64.69 %); format: functional
[16] = target: Platelet-derived growth factor receptor alpha (Homo sapiens) (UniProt P16234); assay: Inhibition of PDGFR-alpha (unknown origin) at 100 nM incubated for 1 hr in presence of ATP by ELISA analysis
OCI-Ly10 [17] = assay: Synergistic antiproliferative activity against human OCILY10 cells harboring MYD88 L265P assessed as inhibition of cell growth at 200 nM incubated for 72 hrs in presence of BTK inhibitor, ibrutinib at 12.5 nM by CCK-8 assay (reference value: 26.07 %); format: functional
[18] = target: Receptor-type tyrosine-protein kinase FLT3 (Homo sapiens) (UniProt P36888); assay: Inhibition of FLT3 (unknown origin) at 100 nM incubated for 1 hr in presence of ATP by ELISA analysis relative to control
Sequence of Receptor-type tyrosine-protein kinase FLT3 (Homo sapiens) (P36888 whole entry): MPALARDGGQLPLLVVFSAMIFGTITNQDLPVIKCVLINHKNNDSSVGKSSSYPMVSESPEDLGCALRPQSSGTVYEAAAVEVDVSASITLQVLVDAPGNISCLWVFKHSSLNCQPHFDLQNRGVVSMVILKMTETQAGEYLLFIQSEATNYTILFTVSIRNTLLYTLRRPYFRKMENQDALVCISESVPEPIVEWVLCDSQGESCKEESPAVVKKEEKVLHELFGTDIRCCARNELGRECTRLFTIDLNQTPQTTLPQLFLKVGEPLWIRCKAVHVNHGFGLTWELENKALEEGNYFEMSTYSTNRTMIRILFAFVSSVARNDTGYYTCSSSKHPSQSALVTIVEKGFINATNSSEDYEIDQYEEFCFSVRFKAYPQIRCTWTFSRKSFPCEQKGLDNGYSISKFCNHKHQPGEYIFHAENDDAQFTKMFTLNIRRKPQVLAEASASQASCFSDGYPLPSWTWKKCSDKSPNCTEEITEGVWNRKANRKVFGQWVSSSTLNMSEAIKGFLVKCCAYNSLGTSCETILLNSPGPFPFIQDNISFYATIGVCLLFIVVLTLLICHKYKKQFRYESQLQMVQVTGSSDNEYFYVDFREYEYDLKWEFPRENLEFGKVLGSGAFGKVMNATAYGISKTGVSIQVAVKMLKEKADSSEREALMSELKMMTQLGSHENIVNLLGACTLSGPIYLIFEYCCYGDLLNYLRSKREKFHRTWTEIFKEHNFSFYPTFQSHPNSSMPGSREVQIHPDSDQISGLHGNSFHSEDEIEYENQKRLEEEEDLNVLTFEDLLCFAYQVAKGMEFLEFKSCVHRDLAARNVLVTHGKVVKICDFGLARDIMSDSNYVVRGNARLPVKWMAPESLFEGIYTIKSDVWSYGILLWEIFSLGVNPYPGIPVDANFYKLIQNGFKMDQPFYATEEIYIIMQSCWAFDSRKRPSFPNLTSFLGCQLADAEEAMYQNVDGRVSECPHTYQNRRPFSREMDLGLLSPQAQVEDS

OCI-Ly10 [19] = assay: Induction of apoptosis in human OCILY10 cells at 1 uM incubated for 48 hrs by Annexin V-FITC/PI staining based flow cytometry; format: functional
OCI-Ly10 [20] = assay: Synergistic antiproliferative activity against human OCILY10 cells harboring MYD88 L265P assessed as inhibition of cell growth at 200 nM incubated for 72 hrs in presence of BTK inhibitor, ibrutinib at 6.2 nM by CCK-8 assay (reference value: 26.07 %); format: functional
[21] = target: Vascular endothelial growth factor receptor 3 (Homo sapiens) (UniProt P35916); assay: Inhibition of VEGFR3 (unknown origin) at 100 nM incubated for 1 hr in presence of ATP by ELISA analysis
OCI-Ly10 [22] = assay: Induction of apoptosis in human OCILY10 cells assessed as late apoptotic cells at 0.2 uM incubated for 24 hrs by Annexin V-FITC/PI staining based flow cytometry (reference value: 3.71 %); format: functional
[23] = target: Focal adhesion kinase 1 (Homo sapiens) (UniProt Q05397); assay: Inhibition of FAK (unknown origin) at 100 nM incubated for 1 hr in presence of ATP by ELISA analysis
Sequence of Focal adhesion kinase 1 (Homo sapiens) (Q05397 2-1052 limits assumed): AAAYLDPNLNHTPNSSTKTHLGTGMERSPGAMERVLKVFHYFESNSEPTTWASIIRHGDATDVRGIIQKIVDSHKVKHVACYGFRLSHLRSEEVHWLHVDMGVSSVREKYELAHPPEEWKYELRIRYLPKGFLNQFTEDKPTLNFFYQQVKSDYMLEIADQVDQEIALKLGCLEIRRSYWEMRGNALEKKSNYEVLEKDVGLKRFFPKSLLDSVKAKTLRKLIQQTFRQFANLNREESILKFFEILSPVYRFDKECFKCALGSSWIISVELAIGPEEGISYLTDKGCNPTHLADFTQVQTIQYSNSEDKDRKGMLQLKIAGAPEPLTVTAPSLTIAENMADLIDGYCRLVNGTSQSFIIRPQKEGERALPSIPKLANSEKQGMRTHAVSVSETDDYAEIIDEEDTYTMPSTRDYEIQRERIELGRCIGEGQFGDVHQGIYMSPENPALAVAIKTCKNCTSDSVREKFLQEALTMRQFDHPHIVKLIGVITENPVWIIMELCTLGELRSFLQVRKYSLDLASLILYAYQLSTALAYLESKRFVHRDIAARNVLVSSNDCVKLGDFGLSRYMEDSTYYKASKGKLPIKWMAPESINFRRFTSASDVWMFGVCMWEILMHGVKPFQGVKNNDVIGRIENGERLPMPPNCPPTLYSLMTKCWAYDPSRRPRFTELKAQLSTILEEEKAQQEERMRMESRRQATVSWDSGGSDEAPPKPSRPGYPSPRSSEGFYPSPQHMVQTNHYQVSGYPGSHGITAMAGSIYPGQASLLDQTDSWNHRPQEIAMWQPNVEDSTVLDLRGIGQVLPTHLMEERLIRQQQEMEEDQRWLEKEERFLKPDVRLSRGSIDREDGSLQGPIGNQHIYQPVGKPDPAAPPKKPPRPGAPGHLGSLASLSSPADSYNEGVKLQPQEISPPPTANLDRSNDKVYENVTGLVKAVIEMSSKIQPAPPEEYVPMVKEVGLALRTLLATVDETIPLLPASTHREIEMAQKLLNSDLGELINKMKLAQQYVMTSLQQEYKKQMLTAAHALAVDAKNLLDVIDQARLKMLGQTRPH

[24] = target: Tyrosine-protein kinase ITK/TSK (Homo sapiens) (UniProt Q08881); assay: Inhibition of ITK (unknown origin) at 100 nM incubated for 1 hr in presence of ATP by ELISA analysis
Sequence of Tyrosine-protein kinase ITK/TSK (Homo sapiens) (Q08881 whole entry): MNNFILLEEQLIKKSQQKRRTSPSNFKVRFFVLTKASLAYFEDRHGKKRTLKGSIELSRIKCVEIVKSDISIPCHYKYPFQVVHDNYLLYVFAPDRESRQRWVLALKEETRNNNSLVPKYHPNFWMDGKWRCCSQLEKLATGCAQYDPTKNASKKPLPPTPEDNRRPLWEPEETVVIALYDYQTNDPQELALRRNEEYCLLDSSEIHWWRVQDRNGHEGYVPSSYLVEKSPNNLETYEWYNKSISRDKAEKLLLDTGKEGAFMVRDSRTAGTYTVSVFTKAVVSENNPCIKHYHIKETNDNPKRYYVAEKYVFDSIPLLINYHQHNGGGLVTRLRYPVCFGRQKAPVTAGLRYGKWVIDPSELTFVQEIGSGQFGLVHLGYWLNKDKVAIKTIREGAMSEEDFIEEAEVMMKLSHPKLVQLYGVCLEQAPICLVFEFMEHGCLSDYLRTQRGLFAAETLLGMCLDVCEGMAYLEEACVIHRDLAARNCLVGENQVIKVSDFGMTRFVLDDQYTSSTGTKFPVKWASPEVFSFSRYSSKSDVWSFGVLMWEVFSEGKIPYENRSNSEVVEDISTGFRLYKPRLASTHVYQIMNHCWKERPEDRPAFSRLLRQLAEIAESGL

OCI-Ly10 [25] = assay: Synergistic antiproliferative activity against human OCILY10 cells harboring MYD88 L265P assessed as inhibition of cell growth at 100 nM incubated for 72 hrs in presence of BTK inhibitor, ibrutinib at 3.1 nM by CCK-8 assay (reference value: 21.36 %); format: functional

SMILES: Cn1cc(-c2cc3c(cc2NC(=O)c2coc(-c4ccnc(N)c4)n2)CC(C)(C)O3)cn1
- inhibition [1]: Dose-Dependent Effect
- Activity (OCI-Ly10 [2]): Active
- Activity (OCI-Ly10 [3]): 7.94%
- inhibition [4]: inactive
- inhibition at 0.4 µM (OCI-Ly10 [5]): 37.4%
- inhibition at 0.1 µM (OCI-Ly10 [6]): 62.1%
- Activity (OCI-Ly10 [7]): 25.2%
- inhibition at 1.6 µM (OCI-Ly10 [8]): 77.3%
- inhibition [9]: inactive
- IC50 [10]: 8.7 nM
- inhibition [11]: inactive
- inhibition [12]: inactive
- Activity (OCI-Ly10 [13]): 9.32%
- Activity (OCI-Ly10 [14]): 21.2%
- inhibition at 1.6 µM (OCI-Ly10 [15]): 88.6%
- inhibition [16]: inactive
- inhibition at 0.2 µM (OCI-Ly10 [17]): 67.5%
- inhibition [18]: > 50%
- Activity (OCI-Ly10 [19]): 92.3%
- inhibition at 0.2 µM (OCI-Ly10 [20]): 53.8%
- inhibition [21]: inactive
- Activity (OCI-Ly10 [22]): 11.8%
- inhibition [23]: inactive
- inhibition [24]: inactive
- inhibition at 0.1 µM (OCI-Ly10 [25]): 21.8%
